Laboratory results published in patent US20190359645A1, “2'3'-CYCLIC DINUCLEOTIDES COMPRISING CARBOCYCLIC NUCLEOTIDE” (Institute of Organic Chemistry and Biochemistry ASCR, V.V.I., priority 2018, published 2019).

Target: WT STING (Homo sapiens, UniProt Q86WV6, H232R)
Experiment: 293T wt STING reporter assay
Format: cell-based
Design: host or cells: 293T (ATCC CRL-3216), stably transfected; also carries the 4xISRE firefly luciferase reporter
Conditions: 293T wtSTING-FL cells, no digitonin, 7 h incubation, ISRE firefly luciferase reporter
Source text: Two complementary oligonucleotides of the sequence […] […] […] […] (SEQ ID NO: 1) and […] […] (SEQ ID NO:2) containing four interferon-sensitive response elements (ISRE) were synthesized by Sigma Aldrich (Czech Republic, Prague). The oligonucleotides were mixed in equal molar amounts, hybridized, and cleaved by restriction endonucleases HindIII (cat. #. R^0104S, NEB, Ipswich, USA) and BglII (cat. # R^0144S, NEB, Ipswich, USA). Ultimately, they were ligated into plasmid pGL4.27 (cat. # E6651, Promega, Madison, USA) linearized with the same enzymes. As a result, the sequence with four ISRE sites was placed upstream of the minimum promoter of firefly luciferase reporter gene.
293T cells (cat. # CRL-3216, ATCC, Manassas, USA) were seeded a day before transfection at density 125,000 cells per cm^2 onto poly-D-lysine (cat. # P6407, Sigma Aldrich, Czech Republic) coated six well plates in antibiotic free DMEM with high glucose (cat. # D5796, Sigma Aldrich, Czech Republic) supplemented with 10% heat inactivated FBS (cat. # S1520, Biowest, Riverside, USA). […]

WT STING, sequence (Q86WV6 whole entry H232R): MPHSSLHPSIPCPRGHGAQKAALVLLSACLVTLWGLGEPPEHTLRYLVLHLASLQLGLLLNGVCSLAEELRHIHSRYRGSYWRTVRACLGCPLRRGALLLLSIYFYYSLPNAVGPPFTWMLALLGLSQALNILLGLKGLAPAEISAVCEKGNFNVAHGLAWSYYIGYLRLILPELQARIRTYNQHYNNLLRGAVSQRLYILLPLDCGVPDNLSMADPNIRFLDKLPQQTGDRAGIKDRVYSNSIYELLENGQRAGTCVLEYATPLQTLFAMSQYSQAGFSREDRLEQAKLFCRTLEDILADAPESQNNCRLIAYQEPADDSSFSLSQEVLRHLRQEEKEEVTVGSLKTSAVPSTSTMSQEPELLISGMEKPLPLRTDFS

Row | Structure (SMILES) | EC50 [µM]
1 | Nc1ncnc2c1ncn2[C@@H]1O[C@@H]2COP(=O)(S)O[C@@H]3[C@H](F)[C@@H](COP(=O)(S)O[C@H]2[C@H]1F)C[C@H]3n1cnc2c(=O)[nH]cnc21 (single isomer, unassigned) [Compound 128a] | 11
2 | Nc1ncnc2c1ncn2[C@@H]1O[C@@H]2COP(=O)(S)O[C@@H]3[C@H](F)[C@@H](COP(=O)(S)O[C@H]2[C@H]1F)C[C@H]3n1cnc2c(=O)[nH]cnc21 (single isomer, unassigned) [Compound 128d] | 0.5
